Values of other authors, collected in patent US20050064031A1, “Combination contraceptive, kits that contain the latter, and a method that uses the latter” (priority 1995, published 2005).

Test system: breast tumors
Details: rats treated before the administration of a carcinogen

CN(C)c1ccc([C@H]2C[C@]3(C)[C@@H](CC[C@]3(O)CCCO)[C@@H]3CCC4=CC(=O)CCC4=C32)cc1 [onapristone]
development of breast tumors: can be inhibited
